From article PMC5078989, “Targeted inhibition of the COP9 signalosome for treatment of cancer” (Nature Communications, 2016)

System: panel of cancer cell lines
Assay: Cell viability (CellTiter-Glo) dose-response across cancer cell line panel;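 note: after 72 h compound incubation with CellTiter-Glo ATP readout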
Format: cell-based, human
Conditions: Homo sapiens
Text: Next, we explored the effect of CSN5 inhibition on the viability of cancer cells. To obtain a comprehensive picture, we generated dose–response curves with a CSN5 inhibitor across more than 500 cancer cell lines in a previously described standardized setting[47] (Supplementary Data 1).
A standardized CellTiter-Glo Assay (Promega #G7570) based on the quantification of ATP was applied according to the manufacturer's protocol to measure the amount of viable cells in culture. In brief, cells were seeded into 384-well plates at optimal density for each cell line. After 4 h, compounds were added at different concentrations in growth medium and incubated for another 72 h in a humidifying chamber at 37 °C and 5% CO2. […] EC50 values were calculated from the plot of percentage of inhibition versus inhibitor concentration using the nonlinear regression analysis software Origin 7.5SR6 (OriginLab Corp.).

EC50 (HEC-50B): 200 nM
EC50 (HEC-108): 3130 nM
EC50 (HEC-151): 1280 nM
EC50 (HEC-251, HEC-251): 513 nM
EC50 (HEC-265): 807 nM
EC50 (HEL): 404 nM
EC50 (HEL 92.1.7, HEL 92.1.7): 491 nM
EC50 (HEY A8, Hey-A8): 1990 nM
EC50 (HL-60, HL-60): 871 nM
EC50 (HLC-1): 3330 nM
EC50 (HLE): 1360 nM
EC50 (HLF): 697 nM
EC50 (HMC-1-8): 1110 nM
EC50 (HPAC): 1990 nM
EC50 (HPBALL, HPB-ALL): 1020 nM
EC50 (HRT-18, HRT-18): 1030 nM
EC50 (HSC-2, HSC-2): 892 nM
EC50 (HSC-3, HSC-3): 637 nM
EC50 (HSC-4, HSC-4): 1050 nM
EC50 (HT-29, HT-29): 2390 nM
EC50 (HT-1080, HT-1080): 407 nM
EC50 (Hep3B): 1090 nM
EC50 (Hep 3B2.1-7): 1800 nM
EC50 (Hs 294T): 1950 nM
EC50 (Hs 695T): 700 nM
EC50 (Hs766T, Hs 766T): 10800 nM
EC50 (Hs 852.T): 2200 nM
EC50 (Hs 936.T): 1540 nM
EC50 (Hs 944.T): 778 nM
EC50 (HuG1-N): 14000 nM
EC50 (HuP-T3, HUP-T3): 349 nM
EC50 (Huh-7, HuH-7): 309 nM
EC50 (IGR-37, IGR-37): 4040 nM
EC50 (IGR-39, IGR-39): 1720 nM
EC50 (IGROV-1, IGROV1): 7240 nM
EC50 (IPC-298, IPC-298): 1230 nM
EC50 (IST-MES2): 609 nM
EC50 (Ishikawa): 1550 nM
EC50 (J82, J82): 4930 nM
EC50 (JHH7, JHH-7): 2440 nM
EC50 (JHH-4, JHH-4): 388 nM
EC50 (JHOS-2): > 30000 nM
EC50 (JHUEM-2): 912 nM
EC50 (JHUEM-3): > 30000 nM
EC50 (JIMT-1, JIMT-1): 22600 nM
EC50 (JL-1): 718 nM
EC50 (JU77): 857 nM
EC50 (JVM-2, JVM-2): 553 nM
EC50 (K029AX): 3060 nM
EC50 (KARPAS-422, KARPAS-422): 1750 nM
EC50 (KATO III): 9810 nM
EC50 (KBM-7, KBM-7): 229 nM
EC50 (KCI-MOH1): 797 nM
EC50 (KE-97, KE-97): 547 nM
EC50 (KLE): 1260 nM
EC50 (KM12, KM12): 3470 nM
EC50 (KMM-1, KMM-1): 685 nM
EC50 (KMRC-1, KMRC-1): 1890 nM
EC50 (KMRC-20): 788 nM
EC50 (KMS-11, KMS-11): 215 nM
EC50 (KNS-60): 6140 nM
EC50 (KNS-62, KNS-62): 8050 nM
EC50 (KO52): 861 nM
EC50 (KP-1N): 1110 nM
EC50 (KP-1NL): > 30000 nM
EC50 (KP-2): 942 nM
EC50 (KP-3): 1890 nM
EC50 (KP-4, KP4): 1210 nM
EC50 (KS-1): 9040 nM
EC50 (KU-19-19, KU-19-19): 1970 nM
EC50 (KURAMOCHI): 392 nM
EC50 (KYSE-30, KYSE-30): 1700 nM
EC50 (KYSE-70, KYSE-70): 6040 nM
EC50 (KYSE-150, KYSE-150): 13400 nM
EC50 (KYSE-180, KYSE-180): 2150 nM
EC50 (KYSE-410, KYSE-410): 11000 nM
EC50 (Kasumi-3, Kasumi3): 390 nM
EC50 (Kasumi-6): 4460 nM
EC50 (L3.3): 1390 nM
EC50 (L-363, L-363): 251 nM
EC50 (L-428, L-428): 590 nM
EC50 (LC-1/sq-SF): 24000 nM
EC50 (LC-1F): 6990 nM
EC50 (LC-2-ad, LC2/ad): 3570 nM
EC50 (LCLC-103H): 21500 nM
EC50 (LIM1899): 884 nM
EC50 (LIM2099): 391 nM
EC50 (LIM2405): 2380 nM
EC50 (LIM2550): 1040 nM
EC50 (LMSU): 247 nM
EC50 (LN-18, LN-18): 708 nM
EC50 (LN-229, LN-229): 2600 nM
EC50 (LO68): 3370 nM
EC50 (LOU-NH91, LOU-NH91): 1350 nM
EC50 (LOX IMVI): 952 nM
EC50 (LP-1, LP-1): 1090 nM
EC50 (LS180, LS 180): 448 nM
EC50 (LUDLU-1, LUDLU-1): 3410 nM
EC50 (Li-7, Li-7): 766 nM
EC50 (Lu-65, LU65): 558 nM
EC50 (Lu-99, LU99): 250 nM
EC50 (M-07e): 7180 nM
EC50 (MCAS): 692 nM
EC50 (MCC13): 846 nM
EC50 (MCC14/2): 282 nM
EC50 (MCC26): 1440 nM
EC50 (MDA-MB-134-VI): 694 nM
EC50 (MDA-MB-157, MDA-MB-157): 2490 nM
EC50 (MDA-MB-175-VII): 3510 nM
EC50 (MDA-MB-231, MDA-MB-231): 1580 nM
EC50 (MDA-MB-435S): 4470 nM
EC50 (MDA-MB-436, MDA-MB-436): 387 nM
EC50 (MDA-MB-453, MDA-MB-453): 7120 nM
EC50 (MDA-MB-468, MDA-MB-468): 5940 nM
EC50 (MDST8, MDST8): 1390 nM
EC50 (ME-180, ME180): 630 nM
EC50 (MEC1, MEC-1): 517 nM
EC50 (MEL-HO): 10500 nM
EC50 (MEL-JUSO): 11200 nM
EC50 (MES-SA): 889 nM
EC50 (MFE-280, MFE-280): 5450 nM
EC50 (MFE-296, MFE-296): 518 nM
EC50 (MFE-319): 11100 nM
EC50 (MFM-223, MFM223): 769 nM
EC50 (MG-63, MG-63): 478 nM
EC50 (MIA PaCa-2, MIA PaCa-2): 1810 nM
EC50 (MINO): 204 nM
EC50 (MKN-1, MKN1): 2030 nM
EC50 (MKN-45, MKN-45): 1710 nM
EC50 (ML-2, ML-2): 687 nM
EC50 (MM127): 508 nM
EC50 (MM138): 1520 nM
EC50 (MM170): 11400 nM
EC50 (MM370): 6220 nM
EC50 (MM383): 1190 nM
EC50 (MM386): 2070 nM
EC50 (MM415): 1370 nM
EC50 (MM426): 3040 nM
EC50 (MM466): 2250 nM
EC50 (MM473, MM473): 2220 nM
EC50 (MM485): 521 nM
EC50 (MM537): 2630 nM
EC50 (MM576): 7150 nM
EC50 (MM603): 286 nM
Compound: COCc1ccccc1NCc1ccc([C@H]2[C@@H](O)CCCc3cncn32)c(-c2ccccc2Cl)c1 [CSN5i-2, (5S,6S)-5-(2′-chloro-5-(((2-(methoxymethyl)phenyl)amino)methyl)-[1,1′-biphenyl]-2-yl)-6,7,8,9-tetrahydro-5H-imidazo[1,5-a]azepin-6-ol]
